Tests used:
[1] = test system: Fusarium oxysporum; assay: Fungicidal activity against Fusarium oxysporum grown under potato-saccharose agar assessed as inhibition of mycelial radial growth at 30 mg/l incubated for 72 hrs; type: functional; details: read-out: GI
[2] = test system: MCF7; assay: Cytotoxicity in human MCF7 cells assessed as inhibition of cell growth incubated for 72 hrs by MTT assay; type: functional, cell-based; details: MCF7, 72 h
[3] = test system: Sclerotinia sclerotiorum; assay: Fungicidal activity against Sclerotinia sclerotiorum grown under potato-saccharose agar assessed as inhibition of mycelial radial growth at 30 mg/l incubated for 72 hrs; type: functional; details: read-out: GI
[4] = Cytotoxicity in human […] cells assessed as inhibition of cell growth incubated for 72 hrs by MTT assay; type: functional, cell-based
[5] = test system: RD; assay: Cytotoxicity in human RD cells assessed as inhibition of cell growth incubated for 72 hrs by MTT assay; type: functional, cell-based
[6] = test system: Jurkat; assay: Induction of apoptosis in human Jurkat cells assessed as apoptotic cells level at 5 uM incubated for 24 hrs by annexin V and Alexa Fluor 488 dye staining based flow cytometry (reference value: 4.928%); type: functional
[7] = test system: A549; assay: Cytotoxicity in human A549 cells assessed as inhibition of cell growth incubated for 72 hrs by MTT assay; type: functional, cell-based; details: A549, 72 h
[8] = test system: Rhizoctonia solani; assay: Fungicidal activity against Rhizoctonia solani grown under potato-saccharose agar assessed as inhibition of mycelial radial growth at 30 mg/l incubated for 72 hrs; type: functional; details: read-out: GI
[9] = test system: Bipolaris sorokiniana; assay: Fungicidal activity against Bipolaris sorokiniana grown under potato-saccharose agar assessed as inhibition of mycelial radial growth at 30 mg/l incubated for 72 hrs; type: functional; details: read-out: GI
[10] = test system: HEK293; assay: Cytotoxicity in human HEK293 cells assessed as inhibition of cell growth incubated for 72 hrs by MTT assay; type: cell-based
[11] = test system: Jurkat; assay: Induction of apoptosis in human Jurkat cells assessed as apoptotic cells level at 5 uM incubated for 24 hrs by annexin V and Alexa Fluor 488 dye staining based flow cytometry (reference value: 2.62%); type: functional
[12] = test system: Jurkat; assay: Induction of apoptosis in human Jurkat cells assessed as damaged cells level at 5 uM incubated for 24 hrs by annexin V and Alexa Fluor 488 dye staining based flow cytometry (reference value: 0.048%); type: functional
[13] = test system: Jurkat; assay: Induction of apoptosis in human Jurkat cells assessed as damaged cells level at 5 uM incubated for 6 hrs by annexin V and Alexa Fluor 488 dye staining based flow cytometry (reference value: 0.07%); type: functional
[14] = test system: Jurkat; assay: Induction of apoptosis in human Jurkat cells assessed as necrotic cells level at 5 uM incubated for 24 hrs by annexin V and Alexa Fluor 488 dye staining based flow cytometry (reference value: 2.616%); type: functional
[15] = test system: Fusarium verticillioides; assay: Fungicidal activity against Fusarium moniliforme grown under potato-saccharose agar assessed as inhibition of mycelial radial growth at 30 mg/l incubated for 72 hrs; type: functional; details: read-out: GI
[16] = test system: Jurkat; assay: Induction of apoptosis in human Jurkat cells assessed as viable cells level at 5 uM incubated for 24 hrs by annexin V and Alexa Fluor 488 dye staining based flow cytometry (reference value: 92.408%); type: functional
[17] = test system: Venturia inaequalis; assay: Fungicidal activity against Venturia inaequalis grown under potato-saccharose agar assessed as inhibition of mycelial radial growth at 30 mg/l incubated for 72 hrs; type: functional; details: read-out: GI
[18] = test system: Jurkat; assay: Induction of apoptosis in human Jurkat cells assessed as viable cells level at 5 uM incubated for 24 hrs by annexin V and Alexa Fluor 488 dye staining based flow cytometry (reference value: 95.27%); type: functional
[19] = test system: Jurkat; assay: Induction of apoptosis in human Jurkat cells assessed as necrotic cells level at 5 uM incubated for 24 hrs by annexin V and Alexa Fluor 488 dye staining based flow cytometry (reference value: 2.04%); type: functional
[20] = Homo sapiens, HEK293, 72 h, read-out: IC50

Row | SMILES | inhibition of growth at 30 µg/mL [1] [%] | IC50 [2] [µM] | inhibition of growth at 30 µg/mL [3] [%] | IC50 [4] [µM] | IC50 [5] [µM] | Apoptotic cells [6] [%] | IC50 [7] [µM] | inhibition of growth at 30 µg/mL [8] [%] | inhibition of growth at 30 µg/mL [9] [%] | IC50 [10, 20] [µM] | Apoptotic cells [11] [%] | Activity [12] [%] | Activity [13] [%] | Necrotic cells [14] [%] | inhibition of growth at 30 µg/mL [15] [%] | Activity [16] [%] | inhibition of growth at 30 µg/mL [17] [%] | Viable cells [18] [%] | Activity [19] [%] | IC50 ([10]; hek293)
1 | CCN1C(=O)N(CC)C2C1NC(=S)N2/N=C/C=C/c1ccccc1OC (centres undefined) | 21 | > 100 | 10 | 17.5 | 0.25 | 36.66 | 0.61 | 52 | 38 | 86.1 | 3.02 | 0.076 | 0.1 | 12.796 | 37 | 50.468 | 29 | 94.06 | 2.82 | 
2 | COc1ccccc1/C=C/C=N/N1C(=S)NC2C1N(C)C(=O)N2c1ccccc1 (centres undefined) |  | 0.26 |  | 0.012 | 0.02 | 26.98 | > 100 |  |  | 0.23 | 3.1 | 0.136 | 0.14 | 16.808 |  | 56.076 |  | 94.37 | 2.39 | 
3 | CC[C@@]1(O)C(=O)OCc2c1cc1n(c2=O)Cc2cc3ccccc3nc2-1 [CAMPTOTHECIN] |  | 13.6 |  | 12.3 | 4.49 | 36.412 | 8.87 |  |  | 54.7 | 32.64 | 0.132 | 0.12 | 26.084 |  | 37.372 |  | 63.71 | 3.53 | 
4 | CN1C(=O)N(C)C2C1NC(=S)N2/N=C/C=C/c1ccccc1[N+](=O)[O-] (centres undefined) |  | 1.76 |  | 3.76 | 32.4 | 34.62 | 2.72 |  |  |  | 3.18 | 0.088 | 0.06 | 9.164 |  | 56.128 |  | 94.6 | 2.16 | Not Active
5 | CCN1C(=O)N(CC)C2C1N=C(SC)N2/N=C/C=C/c1ccccc1 (centres undefined) | 38 | 46.6 | 11 | 5.47 | 24 |  | 21.4 | 60 | 49 | 151 |  |  |  |  | 37 |  | 13 |  |  | 
